Laboratory results taken from patent EP2688405B1 (priority 2011, dated 2012).
≈ marks a conversion by molar mass, not a printed value. Like-named read-outs stand apart in the source and are kept apart here.

What was measured:
Type in all cases: cell-based
[1] = test system: Phytophthora infestans; conditions: Phytin, single compound
[2] = test system: Botrytis cinerea; assay: Microtest with mixtures of active compounds, grey mold (Botrci); conditions: single compound
[3] = test system: Pyricularia oryzae; conditions: Pyrior, single compound
[4] = test system: Septoria tritici; assay: Microtest with mixtures of active compounds, leaf blotch on wheat (Septtr)
[5] = test system: Staphylococcus aureus ATCC 29213; assay: Minimum Inhibitory Concentration (MIC) test, broth microdilution; conditions: ATCC 29213 / DSM 2569, IsoSensitest broth, 24 hours at 37°C, no growth (OD smaller than 0.1)
[6] = test system: Pseudomonas aeruginosa ATCC 27853; assay: as above; conditions: ATCC 27853 / DSM 1117, IsoSensitest broth, 24 hours at 37°C, no growth (OD smaller than 0.1)

Fc1ccc([C@]2(Cn3cncn3)O[C@H]2c2ccccc2Cl)cc1 (racemic) [Epoxiconazole]
Observed efficacy ([1]; 0.25 ppm): 11% | Observed efficacy ([2]; 0.063 ppm): 34% | Observed efficacy ([3]; 0.25 ppm): 5%

COC(=O)N(OC)c1ccccc1COc1ccn(-c2ccc(Cl)cc2)n1 [Pyraclostrobin]
Observed efficacy ([1]; 0.063 ppm): 24% | Observed efficacy ([2]; 0.016 ppm): 0% | Observed efficacy ([4]; Septtr, single compound, 0.001 ppm): 38%

CC1=C(C(=O)O)N2C(=O)[C@@H](NC(=O)[C@H](N)c3ccccc3)[C@H]2SC1 [Control 1, Cephalexine]
MIC [5]: 4 µg/mL (≈ 11.5 µM) | MIC [6]: > 4100 µg/mL

CC(=O)[O-].CCCCn1cc[n+](CCCC)c1 [C2, 1,3-Dibutylimidazolium acetate]
MIC [5]: 2050 µg/mL | MIC [6]: 4100 µg/mL

Cn1cc(C(=O)Nc2ccccc2-c2cc(F)c(F)c(F)c2)c(C(F)F)n1 [Fluxapyroxad]
Observed efficacy ([1]; 0.063 ppm): 12% | Observed efficacy ([2]; 0.016 ppm): 13%

Fc1ccc([C@@]2(Cn3ncnc3S)O[C@@H]2c2ccccc2Cl)c(F)c1 (relative stereo) [Azole*, 2-[rel-(2S;3R)-3-(2-chlorophenyl)-2-(2,4-difluorophenyl)-oxiranylmethyl]-2H-[1,2,4]triazole-3-thiol]
Observed efficacy ([1]; 4 ppm): 20% | Observed efficacy ([2]; 1 ppm): 15% | Observed efficacy ([4]; 0.25 ppm): 4% | Observed efficacy ([4]; 4 ppm): 40% | Observed efficacy ([3]; 16 ppm): 65%

CCn1cc(C(=O)O)c(=O)c2ccc(C)nc21 [Control 3, Nalidixic acid]
MIC [5]: 64 µg/mL (≈ 276 µM) | MIC [6]: 1020 µg/mL (≈ 4410 µM)
